The record followed here is patent publication US5464836A, “Benzophenones having an antifungal activity” (Ministero dell'Universita` e della Ricerca Scientifica e …, priority 1991, dated 1995).

The assay relates to Helminthosporium teres. The assay is described as follows: preventive fungicidal activity on Helminthosporium teres (barley leaves). Format: in vivo. As to conditions: barley leaves cv. Arna, 12 days, scale 100 (healthy plant) to 0 (completely infected plant). The method, then:
Determination of the preventive fungicidal activity on Helminthosporium teres. Barley leaves cv. Arna, cultivated in a vase in a conditioned environment, were treated by spraying both sides with the products being tested (compounds 1 and 2) in a 20% hydroacetonic solution of acetone (vol./vol.). After remaining 2 days in the conditioned environment at 20° C. and 70% R.H., the plants were sprayed on both sides of the leaves with an aqueous suspension of Helminthosporium teres (250.000 conidii per cc.). After 24 hours in a humidity saturated atmosphere, at 21° C., the plants were kept in a conditioned environment for the incubation of the fungus. At the end of this period (12 days), the gravity of infection was estimated by observation, with a scale of indexes ranging from 100 (healthy plant) to 0 (completely infected plant).

Structures are written as SMILES.

Consider `CC(Cc1cccc(C(=O)c2ccccc2)c1)CN1C[C@@H](C)O[C@@H](C)C1` (stereo partly shown) [Compound 1, 4-[3-(3-benzoylphenyl)-2-methylpropyl]-2,6-dimethylmorpholine], for which the “% Control Helminthosporium” value runs as follows: (dosage 125 ppm) 100%; (dosage 500 ppm) 100%.

Turning to `CC(Cc1cccc(C(=O)c2ccc(Cl)cc2)c1)CN1C[C@@H](C)O[C@@H](C)C1` (stereo partly shown) [Compound 2, 4-[3-(3-(4-chlorobenzoyl)phenyl)-2-methylpropyl]-2,6-dimethylmorpholine], the “% Control Helminthosporium” value (dosage 125 ppm) turned out to be 100% and the “% Control Helminthosporium” value (dosage 500 ppm) stood at 100%.
